Data from US20240239790A1, “7-Morpholino-1,6-Naphthyridin-5-yl Derivatives and Pharmaceutical Compositions Thereof Useful as DNA-PK Inhibitor” (adMare Therapeutics Society, priority 2021, published 2024).
Read-outs that look alike come from different tables or passages of the source.

Assays:
[1] = test system: pDNA-PK induction in HCT116 tumour spheroids; experiment: Multicellular tumour spheroid + radiation, pDNA-PK (ser2056) inhibition, immunohistochemical endpoint, HCT116; type: cell-based; details: Homo sapiens, HCT-116, 20 Gy, 2 hours following radiation, 20% O2
In short: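 HCT116 spheroids (~0.5 mm) in MEM/10% FBS, 20% O2, 37° C., pre-incubated 1 h with compound (10 or 5 μM down to 3.5 nM), irradiated 20 Gy, then 2 h further with compound. Cryosections immunostained for pDNA-PK ser2056; EC50 is concentration halving radiation-induced pDNA-PK.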

[2] = Hepatocyte Stability Assay, human hepatocytes; type: in vitro ADME; details: for hepatocyte CLint at 1 uM: both sexes, cryopreserved hepatocytes, pH 7.3, human hepatocytes 0.7 million cells per mL, 1 uM compound; for Hepatocyte Stability Human % rem. 120 min: human hepatocytes
In short: (§1)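 Pooled cryopreserved hepatocytes (male CD-1 mice, ≥10; mixed-gender human donors, ≥10) at 0.7 million viable cells/mL in Krebs-Heinslet buffer pH 7.3, compound 1 uM, ≤0.01% DMSO. Incubated at 37° C./5% CO2 up to 2 h, acetonitrile-quenched; parent peak area by HPLC-MS/MS.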

[3] = Hepatocyte Stability Assay, mouse hepatocytes; type: in vitro ADME; details: for hepatocyte CLint at 1 uM: male, CD-1, cryopreserved hepatocytes, pH 7.3, mouse hepatocytes 0.7 million cells per mL, 1 uM compound; for Hepatocyte Stability Mouse % rem. 120 min: mouse hepatocytes
In short: as §1

DNA-PK = target: T1, DNA-PK (Homo sapiens, UniProt P78527); experiment: DNA-PK Assay for Biochemical Enzymatic Inhibition (ADP Glo Kinase assay); details: DNA-PK enzyme, Table 1
T1 construct: purchased Invitrogen PR9107A
In short: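 Human DNA-PK (25 ng) preincubated 15 min with compounds (ten three-fold dilutions) in HEPES pH 7.5, MgCl2, KCl, calf thymus DNA buffer, then substrate 434.4 μM and ATP 64.4 μM (final) for 60 min at room temperature. ADP-Glo luminescence; percent inhibition fitted by four-parameter regression for IC50.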

[4] = Example 9 Study 2, read-out: Spheroid Cell line: HCT116 Immunohistochemical endpoint pDNA-PK inhibition EC50
[5] = Spheroid, Cell Line: HCT115 (so in the source), Example 7, read-out: EC50, Immunohistochemical endpoint, pDNA-PK inhibition

Row | Structure (SMILES) | EC50 [1, 4] [nM] | EC50 [1, 5] [nM] | hepatocyte CLint at 1 uM [2] [µL/min/1e6 cells] | Hepatocyte Stability Human % rem. 120 min [2] | hepatocyte CLint at 1 uM [3] [µL/min/1e6 cells] | Hepatocyte Stability Mouse % rem. 120 min [3] | IC50 (DNA-PK) [nM]
1 | CN(C)C(=O)COc1ccc(C(=O)N[C@H]2CC[C@@H](Oc3nc(N4CCOCC4)cc4ncccc34)CC2)cn1 [Compound 117, 6-(2-(dimethylamino)-2-oxoethoxy)-N-((1s,4s)-4-((7-morpholino-1,6-naphthyridin-5-yl)oxy)cyclohexyl)nicotinamide] | 500 to 1000 | 500 to 1000 | < 8.2 | G (% remaining = 50-75%) | < 8.2 | G (% remaining = 50-75%) | 0.5 to 1
2 | CN(C)C(=O)Cn1ccc(C(=O)N[C@H]2CC[C@@H](Oc3nc(N4CCOCC4)cc4ncccc34)CC2)c1 [Compound 141, 1-(2-(dimethylamino)-2-oxoethyl)-N-((1s,4s)-4-((7-morpholino-1,6-naphthyridin-5-yl)oxy)cyclohexyl)-1H-pyrrole-3-carboxamide] | – | 10 to 500 | < 8.2 | G (% remaining = 50-75%) | < 8.2 | G (% remaining = 50-75%) | < 0.5
3 | CN(C)C(=O)COc1cnc(N[C@H]2CC[C@@H](Oc3nc(N4CCOCC4)cc4ncc(NS(C)(=O)=O)cc34)CC2)nc1 [Compound 182, N,N-dimethyl-2-((2-(((1s,4s)-4-((3-(methylsulfonamido)-7-morpholino-1,6-naphthyridin-5-yl)oxy)cyclohexyl)amino)pyrimidin-5-yl)oxy)acetamide] | 10 to 500 | 10 to 500 | < 8.2 | H (% remaining = 75-100%) | < 8.2 | H (% remaining = 75-100%) | < 0.5
4 | O=S(=O)(CF)Nc1cnc2cc(N3CCOCC3)nc(O[C@H]3CC[C@@H](Nc4ncccn4)CC3)c2c1 [Compound 192, 1-fluoro-N-(7-morpholino-5-(((1s,4s)-4-(pyrimidin-2-ylamino)cyclohexyl)oxy)-1,6-naphthyridin-3-yl)methanesulfonamide] | 10 to 500 | 10 to 500 | < 8.2 | H (% remaining = 75-100%) | < 8.2 | H (% remaining = 75-100%) | < 0.5
5 | O=S(=O)(CC(F)F)Nc1cnc2cc(N3CCOCC3)nc(O[C@H]3CC[C@@H](Nc4ncccn4)CC3)c2c1 [Compound 193, 2,2-difluoro-N-(7-morpholino-5-(((1s,4s)-4-(pyrimidin-2-ylamino)cyclohexyl)oxy)-1,6-naphthyridin-3-yl)ethane-1-sulfonamide] | 1000 to 10000 | 1000 to 10000 | < 8.2 | G (% remaining = 50-75%) | > 8.2 | F (% remaining = 25-50%) | 0.5 to 1
6 | CS(=O)(=O)c1cnc2cc(N3CCOCC3)nc(O[C@H]3CC[C@@H](Nc4ncccn4)CC3)c2c1 [Compound 200b, N-((1s,4s)-4-((3-(methylsulfonyl)-7-morpholino-1,6-naphthyridin-5-yl)oxy)cyclohexyl)pyrimidin-2-amine] | 1000 to 10000 | 1000 to 10000 | < 8.2 | G (% remaining = 50-75%) | < 8.2 | G (% remaining = 50-75%) | < 0.5

Other lines, results leading:

Row | EC50 [1, 4] [nM] | EC50 [1, 5] [nM] | hepatocyte CLint at 1 uM [2] [µL/min/1e6 cells] | Hepatocyte Stability Human % rem. 120 min [2] | hepatocyte CLint at 1 uM [3] [µL/min/1e6 cells] | Hepatocyte Stability Mouse % rem. 120 min [3] | IC50 (DNA-PK) [nM] | Structure (SMILES)
7 | 1000 to 10000 | 1000 to 10000 | < 8.2 | H (% remaining = 75-100%) | < 8.2 | H (% remaining = 75-100%) | 1 to 10 | CS(=O)(=O)c1cnc2cc(N3CCOCC3)nc(O[C@H]3CC[C@@H](Nc4ncc(OCC(=O)N5CCOCC5)cn4)CC3)c2c1 [Compound 204a, 2-((2-(((1s,4s)-4-((3-(methylsulfonyl)-7-morpholino-1,6-naphthyridin-5-yl)oxy)cyclohexyl)amino)pyrimidin-5-yl)oxy)-1-morpholinoethan-1-one]
8 | 10 to 500 | 10 to 500 | < 8.2 | G (% remaining = 50-75%) | < 8.2 | G (% remaining = 50-75%) | < 0.5 | CS(=O)(=O)c1cnc2cc(N3CCOCC3)nc(O[C@H]3CC[C@@H](Nc4ncnc5ccoc45)CC3)c2c1 [Compound 204b, N-((1s,4s)-4-((3-(methylsulfonyl)-7-morpholino-1,6-naphthyridin-5-yl)oxy)cyclohexyl)furo[3,2-d]pyrimidin-4-amine]
9 | 1000 to 10000 | 1000 to 10000 | < 8.2 | H (% remaining = 75-100%) | < 8.2 | G (% remaining = 50-75%) | 1 to 10 | CS(=O)(=O)c1cnc2cc(N3CCOCC3)nc(O[C@H]3CC[C@@H](NC(=O)c4ncco4)CC3)c2c1 [Compound 204c, N-((1s,4s)-4-((3-(methylsulfonyl)-7-morpholino-1,6-naphthyridin-5-yl)oxy)cyclohexyl)oxazole-2-carboxamide]
